# Values quoted from earlier work in US20240299470A1, “METHODS OF PROBIOTIC TREATMENT TO IMPROVE HUMAN HEALTH” (SEED HEALTH INC., priority 2021, published 2024).
# Tests used:
# overweight individuals = conditions: delivered directly in the colon
# mice = conditions: NOD2-dependent but MyD88-independent
Compound,"energy intake, adiposity, and lipid liver content (overweight individuals)",plasma levels of peptide YY (PYY) and glucagon-like peptide 1 (GLP-1) (overweight individuals),protection from colitis (mice)
CCC(=O)O [propionate],reduced,increased,
M-tri-Lys,,,protected mice from colitis
